ChEMBL document CHEMBL1201862, “PubChem BioAssay data set” (2004)
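Step 1: Grow cells in 96-well plates. Step 2: Expose to compound for 48 hours at 5 concentrations. Step 3: Interpolate endpoints linearly; if unreached, use highest concentration. GI50 is the concentration that inhibits growth by half.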 The source made the active and inactive calls. Cut-off read from the data, not from the text of the source: active = GI50 up to about 1.1 µM and inactive = higher.

Key:
Assay in all cases: NCI-60 cell line screen, 48 h
[1] = tested on: 786-0
[2] = tested on: HOP-92
[3] = tested on: MCF7
[4] = tested on: HCT-116
[5] = tested on: DU-145
[6] = tested on: OVCAR-8
[7] = tested on: SK-OV-3
[8] = tested on: ACHN
[9] = tested on: LOX IMVI
[10] = tested on: UACC-257
[11] = tested on: NCI-H460
[12] = tested on: SK-MEL-28
[13] = tested on: SW-620
[14] = tested on: OVCAR-3
[15] = tested on: UACC-62
[16] = tested on: CAKI-1
[17] = tested on: RXF 393
[18] = tested on: RPMI-8226
[19] = tested on: PC-3
[20] = tested on: M14
[21] = tested on: NCI-H23
[22] = tested on: SK-MEL-2
[23] = tested on: MOLT-4
[24] = tested on: SF-295
[25] = tested on: IGROV-1
[26] = tested on: TK-10
[27] = tested on: HT-29
[28] = tested on: UO-31
[29] = tested on: A549
[30] = tested on: NCI-H522
[31] = tested on: KM12
[32] = tested on: CCRF-CEM
[33] = tested on: COLO 205
[34] = tested on: OVCAR-4
[35] = tested on: EKVX
[36] = tested on: U-251
[37] = tested on: Malme-3M
[38] = tested on: MDA-MB-231
[39] = tested on: K562
[40] = tested on: BT-549
[41] = tested on: SN12C
[42] = tested on: MDA-MB-435
[43] = tested on: HL-60
[44] = tested on: HCC 2998
[45] = tested on: HCT-15
[46] = tested on: T47D
[47] = tested on: Hs-578T
[48] = tested on: HOP-62
[49] = tested on: A498
[50] = tested on: OVCAR-5
[51] = tested on: NCI/ADR-RES
[52] = tested on: SNB-19
[53] = tested on: SF-268
[54] = tested on: SNB-75
[55] = tested on: NCI-H226
[56] = tested on: SK-MEL-5
[57] = tested on: MDA-N

OC1(C(F)(F)F)OCCN=C1C(F)(F)F (configuration not stated)
GI50 [1]: > 100 µM (inactive)
GI50 [2]: 60.5 µM (inactive)
GI50 [3]: > 100 µM (inactive)
GI50 [4]: 51.5 µM (inactive)
GI50 [5]: 41.1 µM (inactive)
GI50 [6]: 53.5 µM (inactive)
GI50 [7]: > 100 µM (inactive)
GI50 [8]: > 100 µM (inactive)
GI50 [9]: > 100 µM (inactive)
GI50 [10]: > 100 µM (inactive)
GI50 [11]: > 100 µM (inactive)
GI50 [12]: > 100 µM (inactive)
GI50 [13]: 56.2 µM (inactive)
GI50 [14]: 52 µM (inactive)
GI50 [15]: > 100 µM (inactive)
GI50 [16]: 52.2 µM (inactive)
GI50 [17]: > 100 µM (inactive)
GI50 [18]: > 100 µM (inactive)
GI50 [19]: > 100 µM (inactive)
GI50 [20]: > 100 µM (inactive)
GI50 [21]: > 100 µM (inactive)
GI50 [22]: 31.5 µM (inactive)
GI50 [23]: 69.8 µM (inactive)
GI50 [24]: > 100 µM (inactive)
GI50 [25]: 99.3 µM (inactive)
GI50 [26]: > 100 µM (inactive)
GI50 [27]: > 100 µM (inactive)
GI50 [28]: > 100 µM (inactive)
GI50 [29]: > 100 µM (inactive)
GI50 [30]: 40.4 µM (inactive)
GI50 [31]: > 100 µM (inactive)
GI50 [32]: 46.8 µM (inactive)
GI50 [33]: > 100 µM (inactive)
GI50 [34]: > 100 µM (inactive)
GI50 [35]: > 100 µM (inactive)
GI50 [36]: > 100 µM (inactive)
GI50 [37]: 24.8 µM (inactive)
GI50 [38]: > 100 µM (inactive)
GI50 [39]: > 100 µM (inactive)
GI50 [40]: 56.2 µM (inactive)
GI50 [41]: 65.9 µM (inactive)
GI50 [42]: > 100 µM (inactive)
GI50 [43]: 37.7 µM (inactive)
GI50 [44]: > 100 µM (inactive)
GI50 [45]: 64.4 µM
GI50 [46]: > 100 µM (inactive)
GI50 [47]: 17.2 µM (inactive)
GI50 [48]: > 100 µM (inactive)
GI50 [49]: > 100 µM (inactive)
GI50 [50]: > 100 µM (inactive)
GI50 [51]: 88.3 µM (inactive)
GI50 [52]: > 100 µM (inactive)
GI50 [53]: 53.8 µM (inactive)
GI50 [54]: > 100 µM (inactive)
GI50 [55]: > 100 µM (inactive)
GI50 [56]: 56.2 µM (inactive)
GI50 [57]: > 100 µM (inactive)
